Data taken from ChEMBL document CHEMBL4130462, “Natural isoflavone biochanin A as a template for the design of new and potent 3-phenylquinolone efflux inhibitors against Mycobacterium avium” (Eur J Med Chem, 2017).
Converted amounts (≈) assume the structure as drawn.

Key:
[1] = test system: Mycolicibacterium smegmatis; test: Antimycobacterial activity against Mycobacterium smegmatis str. MC2 155 assessed as reduction in bacterial viability incubated for 3 days by MTT assay; type: organism-based; conditions: 72 h
Mycobacterium avium [2] = test: Antimycobacterial activity against Mycobacterium avium isolate MAV1 assessed as reduction in bacterial viability incubated for 3 days by MTT assay; type: organism-based; conditions: in vitro, 72 h
Mycobacterium avium [3] = test: Antimycobacterial activity against Mycobacterium avium isolate MAV2 assessed as reduction in bacterial viability incubated for 3 days by MTT assay; type: organism-based; conditions: 72 h
Mycobacterium avium [4] = test: Antimycobacterial activity against Mycobacterium avium isolate MAV4 assessed as reduction in bacterial viability incubated for 3 days by MTT assay; type: organism-based; conditions: 72 h
[5] = Safety index, ratio of CC50 for test compound to CC50 for thioridazine for cytotoxicity in human monocyte-derived macrophages; type: cell-based, Macrophage cell line
[6] = Safety index, ratio of MTC for test compound to MTC for thioridazine for cytotoxicity in human monocyte-derived macrophages; type: cell-based, Macrophage cell line
Mycobacterium avium [7] = conditions: 104 mc'2 3
Mycobacterium avium [8] = conditions: 104 mc'2 4
Mycobacterium avium [9] = conditions: 104
Mycobacterium avium [10] = conditions: 104 mc'2 3; remark: listed apart in the source
Mycobacterium avium [11] = conditions: 104 mc'2 4; remark: listed apart in the source
Mycobacterium avium [12] = conditions: isolate MAV1
Mycobacterium avium [13] = conditions: isolate MAV2
Mycobacterium avium [14] = conditions: isolate MAV2; remark: listed apart in the source
Mycobacterium avium [15] = conditions: 104; remark: listed apart in the source
Mycobacterium avium [16] = conditions: 104 mc'2 3; remark: listed apart in the source
Mycobacterium avium [17] = conditions: isolate MAV1; remark: listed apart in the source
Mycobacterium avium [18] = conditions: isolate MAV4
Mycobacterium avium [19] = conditions: isolate MAV4; remark: listed apart in the source
[20] = test system: Mycobacterium avium subsp. avium ATCC 25291
Mycobacterium avium [21] = conditions: 104; remark: listed apart in the source
Mycobacterium avium [22] = conditions: 104; remark: listed apart in the source
Mycobacterium avium [23] = conditions: 104 mc'2 4; remark: listed apart in the source
Mycobacterium avium [24] = conditions: isolate MAV1; remark: listed apart in the source
Description: Inhibition of multidrug resistance efflux pump in Mycobacterium avium isolate MAV1 assessed as potentiation of ciprofloxacin-induced antibacterial activity by measuring ciprofloxacin MIC at 1/2 MIC incubated for 3 days by MTT assay (Rvb = 2 ug/ml)

Mycobacterium avium [25] = conditions: isolate MAV1; remark: listed apart in the source
Description: Inhibition of multidrug resistance efflux pump in Mycobacterium avium isolate MAV1 assessed as potentiation of ciprofloxacin-induced antibacterial activity by measuring ciprofloxacin MIC at 1/4 MIC incubated for 3 days by MTT assay

Mycobacterium avium [26] = conditions: isolate MAV2; remark: listed apart in the source
Mycobacterium avium [27] = conditions: isolate MAV3
Mycobacterium avium [28] = conditions: isolate MAV3; remark: listed apart in the source
Mycobacterium avium [29] = conditions: isolate MAV4; remark: listed apart in the source
Mycobacterium avium [30] = conditions: 104 mc'2 3; remark: listed apart in the source
Mycobacterium avium [31] = conditions: 104 mc'2 3; remark: listed apart in the source
Mycobacterium avium [32] = conditions: isolate MAV1; remark: listed apart in the source
Description: Inhibition of multidrug resistance efflux pump in Mycobacterium avium isolate MAV1 assessed as potentiation of ofloxacin-induced antibacterial activity by measuring ofloxacin MIC at 1/2 MIC incubated for 3 days by MTT assay (Rvb = 4 ug/ml)

Mycobacterium avium [33] = conditions: isolate MAV2; remark: listed apart in the source
Description: Inhibition of multidrug resistance efflux pump in Mycobacterium avium isolate MAV2 assessed as potentiation of ofloxacin-induced antibacterial activity by measuring ofloxacin MIC at 1/2 MIC incubated for 3 days by MTT assay

Mycobacterium avium [34] = conditions: isolate MAV4; remark: listed apart in the source
[35] = test system: Mycobacterium avium subsp. avium ATCC 25291; remark: listed apart in the source
Mycobacterium avium [36] = conditions: 104 mc'2 3; remark: listed apart in the source
Mycobacterium avium [37] = conditions: isolate MAV2; remark: listed apart in the source
Mycobacterium avium [38] = conditions: isolate MAV3; remark: listed apart in the source
Mycobacterium avium [39] = conditions: isolate MAV4; remark: listed apart in the source
Mycobacterium avium [40] = conditions: isolate MAV4; remark: listed apart in the source
Description: Inhibition of multidrug resistance efflux pump in Mycobacterium avium isolate MAV4 assessed as potentiation of ethidium bromide-induced antibacterial activity by measuring ethidium bromide MIC at 1/4 MIC incubated for 3 days by MTT assay

[41] = test system: Mycobacterium avium subsp. avium ATCC 25291; remark: listed apart in the source
Description: Inhibition of multidrug resistance efflux pump in Mycobacterium avium ATCC 25291 assessed as potentiation of ethidium bromide-induced antibacterial activity by measuring ethidium bromide MIC at 1/2 MIC incubated for 3 days by MTT assay (Rvb = 50 ug/ml)

[42] = test system: Mycobacterium avium subsp. avium ATCC 25291; remark: listed apart in the source
Description: Inhibition of multidrug resistance efflux pump in Mycobacterium avium ATCC 25291 assessed as potentiation of ethidium bromide-induced antibacterial activity by measuring ethidium bromide MIC at 1/4 MIC incubated for 3 days by MTT assay

## CCCOc1ccc(-c2cn(CCN3CCCCC3)c3ccccc3c2=O)cc1
[1]
  MIC: 256 µg/mL (≈ 656 µM)
Mycobacterium avium [2]
  MIC: 128 µg/mL (≈ 328 µM)
Mycobacterium avium [3]
  MIC: 256 µg/mL (≈ 656 µM)
Mycobacterium avium [4]
  MIC: 256 µg/mL (≈ 656 µM)
[5]
  selectivity ratio: 4 to 6
[6]
  selectivity ratio: 4 to 6
Mycobacterium avium [7]
  MIC: 256 µg/mL (≈ 656 µM)
Mycobacterium avium [8]
  MIC: < 4 µg/mL
Mycobacterium avium [9]
  MIC: < 0.125 µg/mL
Mycobacterium avium [10]
  MIC: 128 µg/mL (≈ 328 µM)
Mycobacterium avium [11]
  MIC: 128 µg/mL (≈ 328 µM)
Mycobacterium avium [12]
  MIC: < 4 µg/mL
Mycobacterium avium [13]
  MIC: 256 µg/mL (≈ 656 µM)
Mycobacterium avium [14]
  MIC: 512 µg/mL (≈ 1310 µM)
Mycobacterium avium [15]
  MIC: < 0.125 µg/mL
Mycobacterium avium [16]
  MIC: < 4 µg/mL
Mycobacterium avium [17]
  MIC: < 4 µg/mL
Mycobacterium avium [18]
  MIC: < 4 µg/mL
Mycobacterium avium [19]
  MIC: 8 µg/mL (≈ 20.5 µM)
[20]
  MIC: < 0.5 µg/mL
Mycobacterium avium [21]
  MIC: < 0.125 µg/mL
Mycobacterium avium [22]
  MIC: < 0.125 µg/mL
Mycobacterium avium [23]
  MIC: 2 µg/mL (≈ 5.12 µM)
Mycobacterium avium [24]
  MIC: < 0.031 µg/mL
Mycobacterium avium [25]
  MIC: 2 µg/mL (≈ 5.12 µM)
Mycobacterium avium [26]
  MIC: 1 µg/mL (≈ 2.56 µM)
Mycobacterium avium [27]
  MIC: 1 µg/mL (≈ 2.56 µM)
Mycobacterium avium [28]
  MIC: 2 µg/mL (≈ 5.12 µM)
Mycobacterium avium [29]
  MIC: 2 µg/mL (≈ 5.12 µM)
Mycobacterium avium [30]
  MIC: < 0.125 µg/mL
Mycobacterium avium [31]
  MIC: 8 µg/mL (≈ 20.5 µM)
Mycobacterium avium [32]
  MIC: < 0.0625 µg/mL
Mycobacterium avium [33]
  MIC: 2 µg/mL (≈ 5.12 µM)
Mycobacterium avium [34]
  MIC: < 0.125 µg/mL
[35]
  MIC: 8 µg/mL (≈ 20.5 µM)
Mycobacterium avium [36]
  MIC: 3.12 µg/mL (≈ 8 µM)
Mycobacterium avium [37]
  MIC: 3.12 µg/mL (≈ 8 µM)
Mycobacterium avium [38]
  MIC: 12.5 µg/mL (≈ 32 µM)
Mycobacterium avium [39]
  MIC: < 0.39 µg/mL
Mycobacterium avium [40]
  MIC: 3.12 µg/mL (≈ 8 µM)
[41]
  MIC: < 0.39 µg/mL
[42]
  MIC: 12.5 µg/mL (≈ 32 µM)

## CN(C)CCCN1c2ccccc2Sc2ccc(Cl)cc21 [CHLORPROMAZINE]
[1]
  MIC: 60 µg/mL (≈ 188 µM)
Mycobacterium avium [2]
  MIC: 30 µg/mL (≈ 94.1 µM)
Mycobacterium avium [3]
  MIC: 30 µg/mL (≈ 94.1 µM)
Mycobacterium avium [4]
  MIC: 30 µg/mL (≈ 94.1 µM)
Mycobacterium avium [7]
  MIC: > 512 µg/mL
Mycobacterium avium [8]
  MIC: 512 µg/mL (≈ 1610 µM)
Mycobacterium avium [9]
  MIC: 64 µg/mL (≈ 201 µM)
Mycobacterium avium [10]
  MIC: > 512 µg/mL
Mycobacterium avium [11]
  MIC: > 512 µg/mL
Mycobacterium avium [12]
  MIC: < 4 µg/mL
Mycobacterium avium [13]
  MIC: > 512 µg/mL
Mycobacterium avium [14]
  MIC: > 512 µg/mL
Mycobacterium avium [15]
  MIC: 8 µg/mL (≈ 25.1 µM)
Mycobacterium avium [16]
  MIC: < 4 µg/mL
Mycobacterium avium [17]
  MIC: 32 µg/mL (≈ 100 µM)
Mycobacterium avium [18]
  MIC: 16 µg/mL (≈ 50.2 µM)
Mycobacterium avium [19]
  MIC: 128 µg/mL (≈ 401 µM)
[20]
  MIC: < 0.5 µg/mL
Mycobacterium avium [21]
  MIC: 0.5 µg/mL (≈ 1.57 µM)
Mycobacterium avium [22]
  MIC: 2 µg/mL (≈ 6.27 µM)
Mycobacterium avium [23]
  MIC: 4 µg/mL (≈ 12.5 µM)
Mycobacterium avium [24]
  MIC: < 0.031 µg/mL
Mycobacterium avium [25]
  MIC: 1 µg/mL (≈ 3.14 µM)
Mycobacterium avium [26]
  MIC: 2 µg/mL (≈ 6.27 µM)
Mycobacterium avium [27]
  MIC: 1 µg/mL (≈ 3.14 µM)
Mycobacterium avium [28]
  MIC: 4 µg/mL (≈ 12.5 µM)
Mycobacterium avium [29]
  MIC: 4 µg/mL (≈ 12.5 µM)
Mycobacterium avium [30]
  MIC: 1 µg/mL (≈ 3.14 µM)
Mycobacterium avium [31]
  MIC: 8 µg/mL (≈ 25.1 µM)
Mycobacterium avium [32]
  MIC: < 0.0625 µg/mL
Mycobacterium avium [33]
  MIC: 1 µg/mL (≈ 3.14 µM)
Mycobacterium avium [34]
  MIC: 2 µg/mL (≈ 6.27 µM)
[35]
  MIC: 8 µg/mL (≈ 25.1 µM)
Mycobacterium avium [36]
  MIC: 6.25 µg/mL (≈ 19.6 µM)
Mycobacterium avium [37]
  MIC: 6.25 µg/mL (≈ 19.6 µM)
Mycobacterium avium [38]
  MIC: 12.5 µg/mL (≈ 39.2 µM)
Mycobacterium avium [39]
  MIC: 3.12 µg/mL (≈ 9.8 µM)
Mycobacterium avium [40]
  MIC: 12.5 µg/mL (≈ 39.2 µM)
[41]
  MIC: < 0.39 µg/mL
[42]
  MIC: 12.5 µg/mL (≈ 39.2 µM)
